From ChEMBL document CHEMBL1122073, “Structure-activity relationships for 2-substituted imidazoles as alpha 2-adrenoceptor antagonists” (J Med Chem, 1982) come the findings set out here.

Counter-ions that a name gives are not always drawn.

Series [1] addresses T1, Adrenergic receptor alpha-2 (Rattus norvegicus, UniProt P22086+P19328+P22909).
T1 sequence (P22086 whole entry): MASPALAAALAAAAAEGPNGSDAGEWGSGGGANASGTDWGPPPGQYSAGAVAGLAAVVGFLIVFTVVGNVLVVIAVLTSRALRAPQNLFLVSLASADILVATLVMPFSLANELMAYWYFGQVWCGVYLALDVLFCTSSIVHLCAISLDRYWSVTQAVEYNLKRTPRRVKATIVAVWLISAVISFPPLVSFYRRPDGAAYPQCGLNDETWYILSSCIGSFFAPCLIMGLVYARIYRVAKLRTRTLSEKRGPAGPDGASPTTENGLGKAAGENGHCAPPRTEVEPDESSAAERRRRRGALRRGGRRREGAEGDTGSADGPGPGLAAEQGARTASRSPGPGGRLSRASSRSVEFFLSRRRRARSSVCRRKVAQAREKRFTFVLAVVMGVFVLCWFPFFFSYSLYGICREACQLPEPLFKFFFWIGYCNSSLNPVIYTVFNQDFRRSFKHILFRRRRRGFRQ
T1 sequence (P19328 whole entry): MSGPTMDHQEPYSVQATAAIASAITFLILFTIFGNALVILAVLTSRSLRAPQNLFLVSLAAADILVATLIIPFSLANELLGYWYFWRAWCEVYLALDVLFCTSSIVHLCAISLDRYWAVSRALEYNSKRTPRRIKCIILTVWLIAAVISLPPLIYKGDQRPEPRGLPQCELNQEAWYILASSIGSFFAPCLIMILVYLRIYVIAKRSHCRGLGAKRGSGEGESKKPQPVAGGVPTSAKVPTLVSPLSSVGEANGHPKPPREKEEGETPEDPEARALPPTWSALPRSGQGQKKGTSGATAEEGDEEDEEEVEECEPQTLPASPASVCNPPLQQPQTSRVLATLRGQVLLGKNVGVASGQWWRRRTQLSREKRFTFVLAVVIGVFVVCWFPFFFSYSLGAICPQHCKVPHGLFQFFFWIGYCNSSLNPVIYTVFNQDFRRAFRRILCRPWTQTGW
T1 sequence (P22909 whole entry): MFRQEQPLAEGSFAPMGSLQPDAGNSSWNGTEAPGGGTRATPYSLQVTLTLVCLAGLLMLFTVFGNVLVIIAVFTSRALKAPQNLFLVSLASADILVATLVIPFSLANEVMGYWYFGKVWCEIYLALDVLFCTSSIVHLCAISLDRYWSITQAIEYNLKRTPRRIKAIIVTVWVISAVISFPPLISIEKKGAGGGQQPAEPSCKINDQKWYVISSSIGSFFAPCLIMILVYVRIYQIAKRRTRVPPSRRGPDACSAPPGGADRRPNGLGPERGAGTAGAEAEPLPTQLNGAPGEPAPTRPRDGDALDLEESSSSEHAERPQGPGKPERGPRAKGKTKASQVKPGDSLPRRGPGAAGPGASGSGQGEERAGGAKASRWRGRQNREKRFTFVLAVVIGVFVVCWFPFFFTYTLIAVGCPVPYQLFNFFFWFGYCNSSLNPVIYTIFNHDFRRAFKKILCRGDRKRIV
The series can be described thus: Antagonistic activity against Alpha-2 adrenergic receptor in the prostatic portion of the rat vas deferens. Format: functional, tissue-based.

The target of series [2] is T2, Adrenergic receptor alpha-1 (Rattus norvegicus, UniProt P15823+P23944+P43140).
T2 sequence (P15823 whole entry): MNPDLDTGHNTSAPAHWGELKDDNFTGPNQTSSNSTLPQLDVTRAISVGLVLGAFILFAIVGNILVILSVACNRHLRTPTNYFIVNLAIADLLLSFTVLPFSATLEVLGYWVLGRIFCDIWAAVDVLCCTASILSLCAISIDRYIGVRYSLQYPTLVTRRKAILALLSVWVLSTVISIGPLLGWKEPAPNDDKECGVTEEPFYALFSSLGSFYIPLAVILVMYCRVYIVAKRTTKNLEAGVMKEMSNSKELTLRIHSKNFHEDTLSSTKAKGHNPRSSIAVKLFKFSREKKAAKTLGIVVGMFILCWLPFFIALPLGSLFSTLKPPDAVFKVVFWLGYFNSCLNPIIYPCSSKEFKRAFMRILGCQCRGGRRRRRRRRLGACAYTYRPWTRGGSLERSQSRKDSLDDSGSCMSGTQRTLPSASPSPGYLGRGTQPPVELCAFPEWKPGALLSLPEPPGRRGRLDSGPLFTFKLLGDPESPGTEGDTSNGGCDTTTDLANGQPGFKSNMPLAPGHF
T2 sequence (P23944 whole entry): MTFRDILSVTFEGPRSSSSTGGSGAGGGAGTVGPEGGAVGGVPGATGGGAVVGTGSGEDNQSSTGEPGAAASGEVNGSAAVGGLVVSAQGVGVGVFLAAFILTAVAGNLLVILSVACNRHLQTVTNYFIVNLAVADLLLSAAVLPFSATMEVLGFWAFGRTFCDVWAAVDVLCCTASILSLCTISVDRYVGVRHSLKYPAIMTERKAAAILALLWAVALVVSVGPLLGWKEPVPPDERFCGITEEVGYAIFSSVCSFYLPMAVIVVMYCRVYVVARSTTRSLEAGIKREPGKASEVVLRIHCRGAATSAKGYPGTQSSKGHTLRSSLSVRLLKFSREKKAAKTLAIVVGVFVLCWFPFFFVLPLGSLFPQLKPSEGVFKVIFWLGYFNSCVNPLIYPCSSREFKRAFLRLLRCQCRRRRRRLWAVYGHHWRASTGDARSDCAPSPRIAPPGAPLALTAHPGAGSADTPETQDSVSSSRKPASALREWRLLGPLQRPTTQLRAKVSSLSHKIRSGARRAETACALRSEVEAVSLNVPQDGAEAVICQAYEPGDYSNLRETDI
T2 sequence (P43140 whole entry): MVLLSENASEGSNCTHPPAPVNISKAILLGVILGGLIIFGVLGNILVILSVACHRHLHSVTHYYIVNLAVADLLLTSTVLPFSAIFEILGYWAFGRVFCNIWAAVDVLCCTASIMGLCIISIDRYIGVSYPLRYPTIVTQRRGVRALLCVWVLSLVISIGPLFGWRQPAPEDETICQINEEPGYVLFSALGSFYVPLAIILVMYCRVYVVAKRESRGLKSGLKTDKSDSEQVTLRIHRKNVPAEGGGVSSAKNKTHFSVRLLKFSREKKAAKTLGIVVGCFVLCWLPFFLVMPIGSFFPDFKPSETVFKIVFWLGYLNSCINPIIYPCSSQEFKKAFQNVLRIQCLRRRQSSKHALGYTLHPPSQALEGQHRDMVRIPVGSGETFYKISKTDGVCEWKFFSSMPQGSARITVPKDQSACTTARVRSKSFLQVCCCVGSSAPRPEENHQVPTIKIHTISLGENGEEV
The series can be described thus: […] activity against Alpha-1 adrenergic receptor in the epididymal portion of the rat vas deferens. Format: functional, tissue-based.

The target of series [3] is Adrenergic receptor alpha (Rattus norvegicus) (UniProt P15823+P23944+P43140+P22086+P19328+P22909). The experiment in a line: Selectivity ratio is the […] of alfa2 and alfa1 adrenoceptors. Format: protein assay.
Series [4] addresses T2, Adrenergic receptor alpha-1. The series can be described thus: Antagonistic activity against Alpha-1 adrenergic receptor in the epididymal portion of the rat vas deferens. Format: functional, tissue-based.
The nature of series [5]: Tested for the 1-Octanol distribution coefficient determined by HPLC method (pH 7.4). As to conditions: 1-octanol/aqueous phase. Format: physicochemical.

By pA2 is commonly meant the negative logarithm of the molar antagonist concentration that doubles the agonist concentration needed for the same response. Read a low pA2 as lower antagonist potency. The term logD denotes the decadic logarithm of the distribution of all forms, ionised or not, between an organic phase and buffer at a given pH. The low end stands for a more hydrophilic compound, the high end for a more lipophilic compound.

Turning to `COc1cccc(Cn2ccnc2CC2COc3ccccc3O2)c1.Cl` (stereo unspecified), the pA2 in series [1] was determined as 6.58; in series [2] it was 5. For the same compound, in series [3], the Selectivity ratio was 38.
Regarding `CCN1CCN=C1CC1COc2ccccc2O1.Cl` (stereo unspecified), the pA2 turned out to be 6.7 in series [1] and 5 in series [4]. In series [3], the Selectivity ratio stood at 50.1.
On to `c1ccc2c(c1)OCC(C1=NCCN1)O2` (stereo unspecified) [IDAZOXAN HYDROCHLORIDE], for which the pH-dependent lipophilicity (logD) in series [5] worked out at 0.33.
`CCn1ccnc1CC1COc2ccccc2O1.Cl` (stereo unspecified) [IMILOXAN HYDROCHLORIDE] had a logD in series [5] of 2.31. The pA2 was 6.71 in series [1] and less than 4 in series [4].
For `Cl.c1ccc2c(c1)OCC(c1ncc[nH]1)O2` (stereo unspecified), the logD in series [5] came to 1.76. In addition, the pA2 in series [1] is reported as 5.6; in series [4] it was less than 4. In addition, the Selectivity ratio in series [3] is more than 39.8.
Take `Cl.N=C(N)CC1COc2ccccc2O1` (stereo unspecified): the results for the pA2 in series [1] and in series [4] were 5.4 and less than 5, respectively. The Selectivity ratio in series [3] was more than 2.5.
Regarding `Cl.c1ccc2c(c1)OCC(CCc1ncc[nH]1)O2` (stereo unspecified), in series [5], the logD was 1.99. Moreover, in series [4], the pA2 was 4.2. In addition, the Selectivity ratio in series [3] is 102.
In series [5], `c1ccc2c(c1)OCC(Cc1ncc[nH]1)O2` (stereo unspecified) returned a logD of 1.92.
`NCC1(c2ccccc2)OCCO1`: the pA2 in series [1] is given as 5.5; in series [4] it was less than 5. The Selectivity ratio in series [3] is more than 3.2.
Compound `c1ccc2c(c1)OCC(CN1CCCCC1)O2` (stereo unspecified) [PIPEROXAN] had a pA2 in series [1] of 7.4.
`Cl.c1ccc(-c2c[nH]c(CC3COc4ccccc4O3)n2)cc1` (stereo unspecified) returned a logD in series [5] of more than 2.5. Moreover, the results for the pA2 in series [1] and in series [4] were 5.51 and less than 5, respectively. In addition, in series [3], the Selectivity ratio is more than 3.2.
Consider `Cl.c1ccc(Cn2ccnc2CC2COc3ccccc3O2)cc1` (stereo unspecified), for which, in series [5], the logD was more than 2.5. The results for the pA2 in series [1] and in series [2] were 6.84 and 5, respectively. The Selectivity ratio in series [3] worked out at 69.2.
Consider `Clc1cccc(Cl)c1Cn1ccnc1CC1COc2ccccc2O1` (stereo unspecified), for which the pA2 is 6 in series [1] and less than 5 in series [4]. Also, the Selectivity ratio in series [3] is more than 10.
For `CCCn1ccnc1CC1COc2ccccc2O1` (stereo unspecified), in series [5], the logD is 2.4.
As for `c1ccc2c(c1)OCC(Cc1nc3ccccc3[nH]1)O2` (stereo unspecified), the log distribution coefficient (logD) in series [5] worked out at 3.29.
For the compound `CCCCn1ccnc1CC1COc2ccccc2O1.Cl` (stereo unspecified), the pA2 in series [1] is reported as 6.84; in series [4], less than 4.5. Further, the Selectivity ratio in series [3] was more than 219.
In the same order, the values of `CC(C)n1ccnc1CC1COc2ccccc2O1` (stereo unspecified) are 6.56, 4.3 and 182.
`Cl.c1ccc2c(c1)OCC(CC1=NCCN1)O2` (stereo unspecified) showed a log distribution coefficient (logD) in series [5] of 0.28. The pA2 in series [1] stood at 7; in series [4], 5. Besides, the Selectivity ratio in series [3] is 100.
On to `Cl.Cn1ccnc1CC1COc2ccccc2O1` (stereo unspecified), for which, in series [5], the logD came to 1.93. In addition, in series [4], the pA2 came to 4.33. In series [3], the Selectivity ratio amounted to 74.1.
